Laboratory results reported in article PMC6661766, “Antimicrobial, antioxidant and cytotoxic evaluation of diazenyl chalcones along with insights to mechanism of interaction by molecular docking studies” (BMC Chemistry, 2019).
≈ marks a conversion by molar mass, not a printed value. Read-outs that look alike come from different tables or passages of the source.

Legend:
[1] = system: C. albicans; assay: Antimicrobial serial tube dilution, MIC and MFC; assay type: cell-based, Candida albicans MTCC 227
Protocol: (§1) The synthesized diazenyl chalcones (C18 to C27) and controls (dyes A and E, and chalcone) were assessed for their antimicrobial activity by estimation of MIC and MBC/MFC values. […] The stock solutions of the test compounds and standard drugs having a concentration of 1000 µg ml^−1 were prepared by dissolving the used compounds in DMSO. The nutrient broth/Sabouraud dextrose broth was used for the serial dilution of the test compounds and referenced drugs for bacterial and fungal cultures, respectively. […] The size of the final inoculum in each test tube was taken as 5 × 10^5 CFU ml^−1. The incubation of the test and standard compounds of varying concentrations was done for 24 h at 37 ± 2 °C (bacterial culture) and for 48 h at 37 ± 2 °C (C. albicans) and for 7 d at 25 ± 2 °C (A. fumigatus). The diazenyl chalcones (C18–C27), were further evaluated for their bactericidal/fungicidal activity by estimation of MBC/MFC values. […] For proper mixing of culture media, the plates were shaken gently followed by incubation at the predefined temperature and time as stated earlier, followed by the visual inspection of the plates for signs of microbial growth.

[2] = system: S. typhi; assay: Antimicrobial serial tube dilution, MIC and MBC; assay type: cell-based, Salmonella typhi MTCC 3216; details: Salmonella enterica, TYPHI; for MIC: 24 h, read-out: S. typhi MIC; for MBC: read-out: S. typhi MBC
Protocol: as §1

[3] = system: B. subtilis; assay: Antimicrobial serial tube dilution, MIC and MBC; assay type: cell-based, Bacillus subtilis MTCC 2063; details: Bacillus subtilis; for MIC: 24 h, read-out: B. subtilis MIC; for MBC: read-out: B. subtilis MBC
Protocol: as §1

[4] = system: B. cereus; assay: Antimicrobial serial tube dilution, MIC and MBC; assay type: cell-based, Bacillus cereus MTCC 1305; details: Bacillus cereus; for MIC: 24 h, read-out: B. cereus MIC; for MBC: read-out: B. cereus MBC
Protocol: as §1

[5] = system: A549 human lung cancer cell line; assay: MTT cytotoxicity assay, A549; assay type: cell-based; details: Homo sapiens, A549; MTT, 48 h
Protocol: (§2) The cell lines employed in the investigation were purchased from the National Centre for Cell Sciences (NCCS), Pune, India. The cell lines were cultured in DMEM fortified with 10% FBS, L-glutamine, sodium bicarbonate, and solution of antibiotics (streptomycin 100 μg ml^−1 + penicillin-100 U ml^−1). The culture of cell lines was stored under 5% CO2 incubation at 37 °C.
(§3) The compounds showing maximum activity (antimicrobial and antioxidant potential) were screened for cytotoxicity against A549 and HEK cell lines using MTT assay. Initially, 96-well microculture plate was seeded with 1 × 10^4 cells in 100 µl/well DMEM/MEM, supplemented with 10% FBS followed by incubation at a temperature of 37 °C for a period of 24 h under 5% CO2 atmosphere. After that, the test compounds and camptothecin were added to the cells to achieve a concentration of 10, 25, 50 and 100 µg. MTT reagent (10 µl) of concentration of 5 mg ml^−1 added to all the wells after the duration of 48 h. The plate was incubated further for 4 h followed by careful removal of supernatant from each well. To dissolve the formazan crystals, 100 µl of DMSO was added, and the ELISA reader was used to check the absorbance at 570 nm wavelength. In order to calculate the IC50 concentration, the following equation, i.e. A = Bx + C, was used. In this case, A = 50, while the values B and C values were obtained from the survival curve plot. This study was carried out in duplicate.

[6] = system: A. fumigatus; assay: Antimicrobial serial tube dilution, MIC and MFC; assay type: cell-based, Aspergillus fumigatus MTCC 2584
Protocol: as §1

[7] = system: tested bacterial strains; assay: Antimicrobial serial tube dilution, ranges over several bacterial strains; assay type: cell-based
Protocol: as §1

[8] = DPPH scavenging antioxidant assay
Protocol: The derivatives (C18–C27) were assessed for their antioxidant potential in the presence of the stable free radical DPPH using ascorbic acid as the standard compound [36, 37]. […] The total volume of 200 µl was used in each well for each concentration of the test and standard drug containing 0.004 µg DPPH. The assay was performed in triplicate at all concentrations of each sample and standard compound. DPPH solutions in methanol at the same concentration without test drugs were used as the control. Each concentration of the sample and standard has a different blank. To minimize evaporation, the plate was covered with the lid and wrapped in aluminium foil and kept in the dark place in order to protect the DPPH radical from degradation by light and left for 30 min. After 30 min of incubation, the plate was kept in ELISA reader to measure the absorbance values at 517 nm. The experiment was performed in triplicate. The antioxidant activity of each sample was then calculated as per cent inhibition of DPPH according to the following equation: %decolourationofDPPH=ControlAbs-SampleAbs×100/ControlAbs

[9] = system: HEK human embryonic kidney cells; assay: MTT cytotoxicity assay, HEK; assay type: cell-based; details: 48 h
Protocol: as §2, §3

[10] = system: E. coli; assay: Antimicrobial serial tube dilution, MIC and MBC; assay type: cell-based, Escherichia coli MTCC 1652; details: for MIC / MBC: Escherichia coli; for MIC: 24 h, read-out: E. coli MIC, 24 h at 37 ± 2 °C; for MBC: read-out: E. coli MBC
Protocol: as §1

[11] = system: S. aureus; assay: Antimicrobial serial tube dilution, MIC and MBC; assay type: cell-based, Staphylococcus aureus MTCC 2901; details: Staphylococcus aureus; for MIC: 24 h, read-out: S. aureus MIC; for MBC: read-out: S. aureus MBC
Protocol: as §1

[12] = system: fungal strains; assay: Antimicrobial serial tube dilution, ranges over fungal strains; assay type: cell-based; details: read-out: IC50 against fungal strains
Protocol: as §1

[13] = system: HEK human embryonic kidney cells; parameters: method as in PMID 27302903; details: cited from earlier work
[14] = Candida albicans, 48 h, read-out: C. albicans MIC
[15] = Candida albicans, read-out: C. albicans MFC
[16] = Aspergillus fumigatus, 168 h, read-out: A. fumigatus MIC
[17] = Aspergillus fumigatus, read-out: A. fumigatus MFC
[18] = B. cereus, S. typhi and S. aureus

Structure (SMILES)	MIC [1, 14]	MFC [1, 15]	MIC [2]	MBC [2]	MIC [3]	MBC [3]	MIC [4]	MBC [4]	melting point	IC50 [5]	MIC [6, 16]	MFC [6, 17]	IC50 DPPH [8]	% inhibition of DPPH ([8]; 1.56 µg ml^−1)	% inhibition of DPPH ([8]; 3.12 µg ml^−1)	% inhibition of DPPH ([8]; 6.25 µg ml^−1)	% inhibition of DPPH ([8]; 12.5 µg ml^−1)	% inhibition of DPPH ([8]; 25 µg ml^−1)	% inhibition of DPPH ([8]; 50 µg ml^−1)	% inhibition of DPPH ([8]; 100 µg ml^−1)	also measured
O=C(/C=C\c1cc(Br)ccc1O)c1ccc(N=Nc2ccc([N+](=O)[O-])cc2Cl)c(O)c1 [Compound C-22, (2Z)-3-(5-Bromo-2-hydroxyphenyl)-1-(4-((2-chloro-4-nitrophenyl)diazenyl)-3-hydroxyphenyl) prop-2-en-1-one]	31.2 mg/L (≈ 62.2 µM)	31.2 mg/L (≈ 62.2 µM)	3.9 mg/L (≈ 7.76 µM)	7.81 mg/L (≈ 15.5 µM)	1.95 mg/L (≈ 3.88 µM)	7.81 mg/L (≈ 15.5 µM)	3.9 mg/L (≈ 7.76 µM)	3.9 mg/L (≈ 7.76 µM)	160 to 162 °C	156.4 ± 1.23 mg/L (≈ 311 µM)	62.5 mg/L (≈ 124 µM)	125 mg/L (≈ 249 µM)	> 100 mg/L	8.25%	9.26%	10.25%	11.79%	14.15%	16.34%	23.27%	MBC range ([7]; over tested bacterial strains): 3.90 to 7.81 mg/L; MIC range ([7]; over tested bacterial strains): 1.95 to 3.90 mg/L; IC50 [9]: 296.4 ± 2.32 mg/L (≈ 590 µM); MIC [10]: 1.95 mg/L (≈ 3.88 µM); MBC [10]: 7.81 mg/L (≈ 15.5 µM); MIC [11]: 3.9 mg/L (≈ 7.76 µM); MBC [11]: 31.2 mg/L (≈ 62.2 µM)
O=C(/C=C\c1ccco1)c1ccc(N=Nc2c(O)cccc2O)cc1 [Compound C-24, (2Z)-1-(4-((2,6-Dihydroxyphenyl)diazenyl)phenyl)-3-(furan-2-yl)prop-2-en-1-one]	62.5 mg/L (≈ 187 µM)	125 mg/L (≈ 374 µM)	7.58 mg/L (≈ 22.7 µM)	15.6 mg/L (≈ 46.7 µM)	31.2 mg/L (≈ 93.5 µM)	62.5 mg/L (≈ 187 µM)	15.6 mg/L (≈ 46.7 µM)	15.6 mg/L (≈ 46.7 µM)	315 to 317 °C	109 ± 3.21 mg/L (≈ 326 µM)	125 mg/L (≈ 374 µM)	125 mg/L (≈ 374 µM)	15.88 mg/L (≈ 47.5 µM)	24.16%	26.13%	34.65%	54.71%	77.38%	96.46%	99.17%	MBC range [7, 18]: 15.62 to 31.25 mg/L; MIC range [7, 18]: 7.81 to 15.62 mg/L; log IC50 DPPH ([8]; Fig. 1): 1.201; IC50 [9]: 280.4 ± 1.21 mg/L (≈ 839 µM); E. coli MIC ([10]; 24 h at 37 ± 2 °C): 15.62 mg/L; MIC [10]: 7.81 to 15.6 mg/L (≈ 23.4 to 46.7 µM); MBC [10]: 31.2 mg/L (≈ 93.5 µM); MIC [11]: 15.6 mg/L (≈ 46.7 µM); MBC [11]: 15.6 mg/L (≈ 46.7 µM)
OC(Cn1cncn1)(Cn1cncn1)c1ccc(F)cc1F [Fluconazole, fluconazole, reference compound]	–	–	–	–	–	–	–	–	–	–	–	–	–	–	–	–	–	–	–	–	MIC ([1]; Candida albicans; 48 h at 37 ± 2 °C; read-out: C. albicans MIC): 7.81 mg/L (≈ 25.5 µM); MFC ([1]; Candida albicans; read-out: C. albicans MFC): 31.2 mg/L (≈ 102 µM); MIC ([6]; Aspergillus fumigatus, 168 h; 7 d at 25 ± 2 °C; read-out: A. fumigatus MIC): 15.6 mg/L (≈ 51 µM); MFC ([6]; Aspergillus fumigatus; read-out: A. fumigatus MFC): 125 mg/L (≈ 408 µM); IC50 [12]: 7.81 to 15.6 mg/L (≈ 25.5 to 51 µM)
CC[C@@]1(O)C(=O)OCc2c1cc1n(c2=O)Cc2cc3ccccc3nc2-1 [Std, camptothecin, reference compound]	–	–	–	–	–	–	–	–	–	8.7 mg/L (≈ 25 µM)	–	–	–	–	–	–	–	–	–	–	HEK IC50 [13]: 9.0 [28] µg ml^−1
